Reference: patent US20160058712A1, “3-HYDROXYPTEROSTILBENE AND THERAPEUTIC APPLICATIONS THEREOF” (priority 2014, published 2016)

Columns and labels:
COLO 205 cells [1] = assay: MTT cell viability assay, COLO 205; assay type: cell-based; conditions: Homo sapiens, COLO205, MTT, 24 h
Method: (§1) The human colon cancer cell lines COLO 205, HCT116 and HT29 were purchased from the American Type Culture Collection (Rockville, Md.). Cell lines were grown in RPMI1640 supplemented with 10% heat inactivated fetal bovine serum (GIBCO BRL, Grand Island, N.Y.), 100 units/mL of penicillin, 100 μg/mL of streptomycin), 2 mM L-glutamine (GIBCO BRL, Grand Island, N.Y.), and were kept at 37° C. in a humidified 5% CO2 incubator. Pterostilbene and 3-HPT were dissolved in dimethyl sulfoxide (DMSO, as final concentration of 0.05%). Cells were treated with 0.05% DMSO as vehicle control.
(§2) Cell viability was assayed by 3(4,5-dimethylthiazol-2-yl)-2,5-diphenyltetrazolium bromide (MTT). Briefly. COLO 205, HCT116 and HT29 cells were plated at a density of 2×10^2 cells/mL into 96 well plates. After overnight growth, cells were treated with a series of concentrations of pterostilbene or 3-hydroxypterostilbene for 24 h. The final concentrations of DMSO in the culture medium were <0.05%. At the end of treatment, 0.2% MTT was added and cells were incubated for a further 4 h. Cell viability was determined by scanning with an ELISA reader with a 570 nm filter.

HCT-116 cells = assay: MTT cell viability assay, HCT116; assay type: cell-based; conditions: Homo sapiens; HCT-116, MTT, 24 h
Method: as §1, §2

HT-29 cells = assay: MTT cell viability assay, HT29; assay type: cell-based; conditions: Homo sapiens; HT-29, MTT, 24 h
Method: as §1, §2

[2] = tested on: PC-3 (Human prostate cancer cell line); assay: MTT cell viability assay, PC-3; assay type: cell-based
Method: as §2
The MTT reaction explained in Para 0040 was also used to assess the cell viability of human prostate cancer cells (PC-3) in the presence of pterostilbene and 3-hydroxypterostilbene. The results (FIG. 1) are represented in Table II.

COLO 205 cells [3] = assay: Flow cytometry analysis of subG1 cell population (PI staining); assay type: cell-based, human; conditions: 24 h
Method: For subG1 cell population analysis, COLO 205 cells (2×10^5 cells/mL) were cultured in 12 well and treatment with various concentrations of pterostilbene or 3-hydroxypterostilbene for 24 h. The cells were then harvested, washed with PBS, re-suspended in 200 μL of PBS, and fixed in 800 μL of iced 100% ethanol at […]. After being left to stand overnight, the cell pellets were collected by centrifugation, re-suspended in 1 mL of hypotonic buffer (0.5% Triton X100 in PBS and 0.5 μg/mL RNase) with PI (50 μg/mL) and incubated at 37° C. in the dark for 30 min. Fluorescence emitted from the PIDNA complex was quantitated after excitation of the fluorescent dye by FACScan cytometry (Becton Dickinson, San Jose, Calif.). […] The results indicated a higher apoptotic potential of 3-hydroxypterostilbene for COLO 205 cells.

COLO 205 cells [4] = assay: ROS production by DCFHDA flow cytometry; assay type: cell-based, human; conditions: COLO 205, 50 μM, 15 min; from 114
Method: For mitochondrial membrane potential and ROS production, COLO 205 cells were treated as described under Example III for 15 min, and then DiOC6 [3,3′-dihexyloxacarbocyanine iodide] (40 nM) or DCFHDA [2′,7′-dichlorodihydrofluorescein diacetate] (20 μM) was added to the medium for a further 30 min at 37° C. After washing with PBS, the fluorescence intensity was determined by FAC Scan cytometry. The DiOC6 fluorescence intensity shifted to the left from 224 to 117 and 75 in pterostilbene and 3-HPT induced apoptotic COLO 205 cells, respectively. […] The role of ROS in the induction of apoptosis is well recognized. […] The imbalance of ROS concentrations could play an important role as an early mediator in 3-HPT induced apoptosis.

COLO 205 cells [5] = assay: Autophagy (acidic vesicular organelles) by acridine orange staining; assay type: cell-based, human; conditions: 24 h
Method: Autophagy induction in COLO 205 cells treated with 3-HPT and pterostilbene was detected by Acridine Orange (AO) staining. After 24 h treatment, COLO 205 cells were washed with phosphate buffered saline (PBS), suspended in PBS and stained with 1 μg/mL AO of 20 min. Photographs were obtained with a fluorescence microscope (Axioscop, Carl Zeiss, Thomwood, N.Y.) equipped with a mercury 100 W lamp, 490 nm Bandpass blue excitation filters, a 500 nm dichroic mirror and a 515 nm long pass barrier filter. For quantification of AVOs by flow cytometry, cells were treated as described under EXAMPLE II and stained with AO for 15 min and were analyzed by FACScan laser flow cytometer and CellQuest software.

COLO 205 cells [6] = assay: Chloroquine (CQ) pretreatment, MTT viability and subG1 analysis; assay type: cell-based; conditions: COLO 205, 25 μM CQ 1 h then 50 μM for 24 h
Method: Cells were pretreated with 25 μM CQ for 1 h before treatment with 50 μM of pterostilbene or 3-hydroxypterostilbene for 24 h. Cell viability was determined by MTT assay. SubG1 cell population (%) was analyzed and quantified after Propidium iodide (PI) staining followed by flow cytometry.

PC-3 cells [7] = assay: Flow cytometry analysis of subG1 cell population in PC-3 cells; assay type: cell-based, human; conditions: PC-3, 0-20 μM, 48 hr
Method: PC-3 cells were cultured in serum-free RPMI containing 0, 2.5, 5, 10, or 20 μM of 3-HPT for 48 hr followed by flow cytometric analysis.

[8] = tested on: Bcl-xL and Bax in PC-3 cells; assay: Western blot of Bcl-xL and Bax expression; assay type: cell-based, human; conditions: PC-3, 10 μM, different time intervals
PC-3 cells [9] = assay: Mitochondrial membrane potential by DiOC6 flow cytometry in PC-3 cells; assay type: cell-based, human; conditions: PC-3, 10 and 20 μM, 48 hr
Method: As a measure of down-stream check points in the mammalian apoptotic pathways, the potential of 3-HPT to cause mitochondrial dysfunction and activation of the caspase pathways was further evaluated. PC-3 cells were cultured in serum-free RPMI containing 0, 2.5, 5, 10, or 20 μM of 3-HPT for 48 hr, respectively. Then, cells were stained with DiOC6 and analyzed by flow cytometry.

[10] = tested on: caspase 3, 8 and 9 in PC-3 cells; assay: Fluorometric caspase 3, 8 and 9 activity in PC-3 cells; assay type: cell-based, human; conditions: PC-3, 0-20 μM, 48 hours
[11] = tested on: multi drug resistant and BCR-ABL-expressing leukemia cells; conditions: Tolomeo et al. 2005; cited from earlier work

COc1cc(/C=C/c2ccc(O)c(O)c2)cc(OC)c1 [3-hydroxypterostilbene, 3,4-dihydroxy-3′,5′-dimethoxy-trans-stilbene]
IC50 (COLO 205 cells [1]): 9 ± 0.2 µM | IC50 (HCT-116 cells): 40.2 ± 0.6 µM | IC50 (HT-29 cells): 70.9 ± 1 µM | IC50 ([2]; Homo sapiens, PC-3, MTT): 5 µM | growth inhibitory effect ([2]; PC-3 human prostate cancer cells): strong growth inhibitory effect | percentage of apoptotic COLO 205 cells (subG1) (COLO 205 cells [3]; 5 μM): 7.2% | percentage of apoptotic COLO 205 cells (subG1) (COLO 205 cells [3]; 10 μM): 9.3% | percentage of apoptotic COLO 205 cells (subG1) (COLO 205 cells [3]; 25 μM): 20.1% | percentage of apoptotic COLO 205 cells (subG1) (COLO 205 cells [3]; 50 μM): 36.3% | mean DCFHDA fluorescence intensity (ROS) (COLO 205 cells [4]): 38 | appearance of AVO (fluorescence microscopy) (COLO 205 cells [5]; COLO 205, 50 μM): marked appearance of AVO than pterostilbene | red fluorescence of cells with AVOs (flow cytometry) (COLO 205 cells [5]; COLO 205, 25 and 50 μM): significantly increased after treatment with 3-HPT in a dose dependent manner | cytotoxicity after CQ pretreatment (COLO 205 cells [6]): significant increase cytotoxicity | percentage of apoptotic cells (subG1) (PC-3 cells [7]): increasing percentage of apoptotic cells over increasing concentrations | Bax (pro-apoptotic protein) expression [8]: upregulates | Bcl-xL (anti-apoptotic protein) expression [8]: clearly down-regulates | mitochondrial membrane potential (PC-3 cells [9]): significant reduction | caspases activity (caspase 3, 8 and 9) [10]: initiation of caspases activity | apoptosis induction in leukemia cells [11]: effective apoptosis-inducing agents
